Measurements as given in PubChem BioAssay (NCI).
“And” between values parts separate entries of the source, which are not always exact repeats. Identical values can stand only once.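 How tested: cells in 96-well plates exposed to compound for 48 hours at five concentrations. Here, GI50 denotes the concentration required for 50% inhibition of growth. TGI: total growth inhibition.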

Columns and labels:
Assay in all cases: inhibition of tumour cell growth, NCI panel, 48 h
RPMI-8226 leukemia = system: RPMI-8226 leukemia
HS 578T breast = system: HS 578T breast
CAKI-1 renal = system: CAKI-1 renal
TK-10 renal = system: TK-10 renal
HCT-15 colon = system: HCT-15 colon
HT29 colon = system: HT29 colon
COLO 205 colon = system: COLO 205 colon
SW-620 colon = system: SW-620 colon

SMILES | GI50 (RPMI-8226 leukemia) [µM] | TGI (RPMI-8226 leukemia) [µM] | GI50 (HS 578T breast) [µM] | TGI (HS 578T breast) [µM] | GI50 (CAKI-1 renal) [µM] | TGI (CAKI-1 renal) [µM] | GI50 (TK-10 renal) [µM] | TGI (TK-10 renal) [µM] | GI50 (HCT-15 colon) [µM] | TGI (HCT-15 colon) | GI50 (HT29 colon) [µM] | TGI (HT29 colon) [µM] | GI50 (COLO 205 colon) [µM] | TGI (COLO 205 colon) | GI50 (SW-620 colon) [µM] | TGI (SW-620 colon) [µM]
COc1cccc(S(=O)(=O)NC2=NCCN2C(=S)SN2CCn3c2nsc3=S)c1 | 26.1 | 97.6 | 90.3 | > 100 | 32 | 66.2 | 34.4 | 81.5 | 21.6 | 43.7 µM | 40.2 | > 100 | 17.8 | 39.6 µM | 34 | > 100
COc1ccc(Sc2[nH]c(C=O)c3ccccc23)cc1 | 7.13 | 26 | 6.44 | 33.6 | 16.7 | 84 | 10.6 | 45.1 | 11.6 | 24.4 µM | 4.02 | 14.1 | 0.664 | 6 µM | 3.72 | 16.4
CCOc1ccc(-c2nc3ccc(-c4nc5ccc(N6CCN(C)CC6)cc5[nH]4)cc3[nH]2)cc1 | 0.0484 | 0.71 | 0.476 | 2.52 | 0.555 | 2.55 | 1.05 | 2.24 | 1.48 | 7.61 µM | – | – | 0.117 | 1.26 µM | 0.234 | 1.17
CC[C@]12CN3CCc4c([nH]c5ccccc45)[C@@](C(=O)OC)(c4cc5c(cc4OC)N(C)[C@H]4[C@@](O)(C(=O)OC)[C@H](OC(C)=O)[C@]6(CC)C=CCN7CC[C@]54[C@@H]76)CC(C3)[C@H]1O2 (some centres undefined) | 0.138 | > 100 | – | 72.3 | 3.72 | > 100 | 0.562 | > 100 | 2.92 | 9.43 µM and > 28.1 µM | 0.131 | > 73.5 | 0.092 | 1.03 µM and 0.387 µM | 0.155 | > 100
CCCCCSc1ccc2nc(NC(=O)OCC)sc2c1 | 1.04 | > 100 | 0.944 | > 100 | 0.626 | > 100 | 2.25 | 52.8 | 0.384 | > 100 µM | 0.348 | > 100 | 0.53 | > 100 µM | 0.453 | > 100
O=C1OC2(c3ccc(O)cc3Oc3cc(O)ccc32)c2cccc3cccc1c23 | 21.5 | 56.3 | 22.2 | > 100 | 24.6 | > 100 | 27.4 | 58.1 | 19.2 | 52.6 µM | 21 | 47.4 | 17.2 | 33.2 µM | 16.5 | 42.7
COc1cccc(/C=N\NC(=O)c2ccncc2)c1O | 5.48 | > 100 | > 100 | > 100 | 1.88 | 17.6 | 4.78 | > 100 | 2.87 | > 100 µM | 21.5 | > 100 | 4.9 | > 100 µM | 7.48 | > 100
